Measurements as given in patent publication US10065941B2, “Aminotriazine derivative and pharmaceutical composition comprising the same” (Shionogi & Co., Ltd., priority 2013, dated 2018).

What follows are compounds tested against human P2X3 receptor (Homo sapiens (Human), UniProt P56373) (assay: Evaluation of human P2X3 receptor inhibitory activity (Test Example 1)). Conditions: C6BU-1 cell transfected with human P2X3 receptor gene, FLIPR 384.
Assay type: cell-based
Procedure, shortened: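 FLIPR calcium read-out: signal taken as peak fluorescence after ATP addition divided by starting fluorescence, and IC50 calculated from it. Compound added 5 min before 150 nM ATP solution (pre-dispense stock) to Fluo-3-AM-loaded C6BU-1 cells stably transfected with human P2X3; HEPES buffer pH 7.5 with probenecid.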

Chain of human P2X3 receptor (P56373 whole entry): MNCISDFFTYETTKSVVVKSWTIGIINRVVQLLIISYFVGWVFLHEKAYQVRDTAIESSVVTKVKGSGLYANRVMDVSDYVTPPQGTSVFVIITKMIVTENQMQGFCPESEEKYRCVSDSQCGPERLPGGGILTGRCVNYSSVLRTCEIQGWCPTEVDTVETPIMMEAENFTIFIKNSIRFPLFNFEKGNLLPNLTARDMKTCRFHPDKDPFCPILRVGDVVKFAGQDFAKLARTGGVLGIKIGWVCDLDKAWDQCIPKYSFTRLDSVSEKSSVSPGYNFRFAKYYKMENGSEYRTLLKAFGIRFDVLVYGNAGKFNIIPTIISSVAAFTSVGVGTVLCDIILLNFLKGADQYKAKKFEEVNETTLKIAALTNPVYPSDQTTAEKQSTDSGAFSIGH

In order of rising IC50:
1. COc1cc(Oc2ccc(/N=c3\[nH]c(=O)n(C[C@H](C)C(=O)O)c(=O)n3Cc3ccc(Cl)cc3)cc2)ccn1 [Compound R-032]  4 nM
2. COc1cc(Oc2ccc(/N=c3\[nH]c(=O)n(C[C@H](C)C(=O)O)c(=O)n3Cc3ccc(Cl)cc3)cc2)cc(F)n1 [Compound R-058]  4 nM
3. COC(=O)C(C)(C)Cn1c(=O)[nH]/c(=N\c2ccc(Oc3cccnn3)c(F)c2)n(Cc2ccc(Cl)cc2)c1=O [Compound R-034]  5 nM
4. COC(=O)[C@@H](C)Cn1c(=O)[nH]/c(=N\c2ccc(Oc3ccnc(C)n3)cc2)n(Cc2ccc(Cl)cc2)c1=O [Compound R-042]  5 nM
5. COC(=O)C(C)(C)Cn1c(=O)[nH]/c(=N\c2ccc(Oc3ccnc(C)n3)cc2)n(Cc2ccc(Cl)cc2)c1=O [Compound R-043]  5 nM
6. COC(=O)[C@@H](C)Cn1c(=O)[nH]/c(=N\c2ccc(Oc3ncccn3)cc2)n(Cc2ccc(Cl)cc2)c1=O [Compound R-059]  5 nM
7. COC(=O)[C@@H](C)Cn1c(=O)[nH]/c(=N\c2ccc(Oc3cccnn3)c(F)c2)n(Cc2ccc(Cl)cc2)c1=O [Compound R-033]  6 nM
8. C[C@@H](Cn1c(=O)[nH]/c(=N\c2ccc(Oc3cnc(C(F)(F)F)cn3)cc2)n(Cc2ccc(Cl)cc2)c1=O)C(=O)O [Compound R-039]  6 nM
9. COC(=O)[C@@H](C)Cn1c(=O)[nH]/c(=N\c2ccc(Oc3cc(Cl)ncn3)cc2)n(Cc2ccc(Cl)cc2)c1=O [Compound R-046]  6 nM
10. COC(=O)[C@@H](C)Cn1c(=O)[nH]/c(=N\c2ccc(Oc3cnccn3)c(F)c2)n(Cc2ccc(Cl)cc2)c1=O [Compound R-048]  6 nM
11. C[C@@H](Cn1c(=O)[nH]/c(=N\c2ccc(Oc3cc(F)nc(F)c3)cc2)n(Cc2ccc(Cl)cc2)c1=O)C(=O)O [Compound R-057]  6 nM
12. COc1cc(Oc2ccc(/N=c3\[nH]c(=O)n(CC(C)(C)C(=O)O)c(=O)n3Cc3ccc(Cl)cc3)cc2)cc(F)n1 [Compound R-071]  6 nM
13. COC(=O)[C@@H](C)Cn1c(=O)[nH]/c(=N\c2ccc(Oc3ccc(C(F)(F)F)nn3)cc2)n(Cc2ccc(Cl)cc2)c1=O [Compound R-028]  7 nM
14. COC(=O)C(C)(C)Cn1c(=O)[nH]/c(=N\c2ccc(Oc3ccc(C(F)(F)F)nn3)cc2)n(Cc2ccc(Cl)cc2)c1=O [Compound R-029]  7 nM
15. C[C@@H](Cn1c(=O)[nH]/c(=N\c2ccc(Oc3cccnn3)c(F)c2)n(Cc2ccc(Cl)cc2)c1=O)C(=O)O [Compound R-037]  7 nM
16. CC(C)(Cn1c(=O)[nH]/c(=N\c2ccc(Oc3cccnn3)c(F)c2)n(Cc2ccc(Cl)cc2)c1=O)C(=O)O [Compound R-038]  7 nM
17. COC(=O)[C@@H](C)Cn1c(=O)[nH]/c(=N\c2ccc(Oc3cc(F)nc(F)c3)cc2)n(Cc2ccc(Cl)cc2)c1=O [Compound R-040]  7 nM
18. C[C@@H](Cn1c(=O)[nH]/c(=N\c2ccc(Oc3cnccn3)c(F)c2)n(Cc2ccc(Cl)cc2)c1=O)C(=O)O [Compound R-055]  7 nM
19. COc1nccc(Oc2ccc(/N=c3\[nH]c(=O)n(C[C@H](C)C(=O)O)c(=O)n3Cc3ccc(Cl)cc3)cc2)n1 [Compound R-061]  7 nM
20. CC(C)(Cn1c(=O)[nH]/c(=N\c2ccc(Oc3cc(F)nc(F)c3)cc2)n(Cc2ccc(Cl)cc2)c1=O)C(=O)O [Compound R-070]  7 nM
21. C[C@@H](Cn1c(=O)[nH]/c(=N\c2ccc(Oc3ccc(C(F)(F)F)nn3)cc2)n(Cc2ccc(Cl)cc2)c1=O)C(=O)O [Compound R-030]  8 nM
22. COC(=O)[C@@H](C)Cn1c(=O)[nH]/c(=N\c2ccc(Oc3cnc(C(F)(F)F)cn3)cc2)n(Cc2ccc(Cl)cc2)c1=O [Compound R-035]  8 nM
23. COC(=O)C(C)(C)Cn1c(=O)[nH]/c(=N\c2ccc(Oc3cnccn3)c(F)c2)n(Cc2ccc(Cl)cc2)c1=O [Compound R-049]  8 nM
24. COC(=O)C(C)(C)Cn1c(=O)[nH]/c(=N\c2ccc(Oc3cc(Cl)ncn3)cc2)n(Cc2ccc(Cl)cc2)c1=O [Compound R-047]  9 nM
25. Cc1nccc(Oc2ccc(/N=c3\[nH]c(=O)n(C[C@H](C)C(=O)O)c(=O)n3Cc3ccc(Cl)cc3)cc2)n1 [Compound R-044]  10 nM
26. CC(C)(Cn1c(=O)[nH]/c(=N\c2ccc(Oc3cnccn3)c(F)c2)n(Cc2ccc(Cl)cc2)c1=O)C(=O)O [Compound R-056]  10 nM
27. COC(=O)C(C)(C)Cn1c(=O)[nH]/c(=N\c2ccc(Oc3cnc(C(F)(F)F)cn3)cc2)n(Cc2ccc(Cl)cc2)c1=O [Compound R-036]  11 nM
28. COC(=O)C(C)(C)Cn1c(=O)[nH]/c(=N\c2ccc(Oc3cc(F)nc(F)c3)cc2)n(Cc2ccc(Cl)cc2)c1=O [Compound R-041]  11 nM
29. CC(C)(Cn1c(=O)[nH]/c(=N\c2ccc(Oc3ccc(C(F)(F)F)nn3)cc2)n(Cc2ccc(Cl)cc2)c1=O)C(=O)O [Compound R-031]  12 nM
30. CCn1c(=O)[nH]/c(=N\c2ccc(Oc3ccc(C(=O)OC)c(Cl)n3)cc2)n(Cc2ccc(Cl)cc2)c1=O [Compound R-064]  12 nM
31. CCc1[nH]c2ccc(/N=c3\[nH]c(=O)n(C[C@H](C)C(=O)O)c(=O)n3Cc3ccc(Cl)cc3)cc2c1C [Compound R-074]  13 nM
32. CCc1[nH]c2ccc(/N=c3\[nH]c(=O)n(CC(C)(C)C(=O)O)c(=O)n3Cc3ccc(Cl)cc3)cc2c1C [Compound R-075]  13 nM
33. C[C@@H](Cn1c(=O)[nH]/c(=N\c2ccc(OC3CCC3)c(F)c2)n(Cc2ccc(Cl)cc2)c1=O)C(=O)O [Compound R-076]  13 nM
34. Cc1nccc(Oc2ccc(/N=c3\[nH]c(=O)n(CC(C)(C)C(=O)O)c(=O)n3Cc3ccc(Cl)cc3)cc2)n1 [Compound R-045]  14 nM
35. COc1cc(Oc2ccc(/N=c3\[nH]c(=O)n(C[C@H](C)C(=O)O)c(=O)n3Cc3ccc(Cl)cc3)cc2)ncn1 [Compound R-050]  14 nM
36. CC(C)(Cn1c(=O)[nH]/c(=N\c2ccc(Oc3ncccn3)cc2)n(Cc2ccc(Cl)cc2)c1=O)C(=O)O [Compound R-060]  16 nM
37. COC(=O)[C@@H](C)Cn1c(=O)[nH]/c(=N\c2ccc(OC3CCC3)c(F)c2)n(Cc2ccc(Cl)cc2)c1=O [Compound R-072]  16 nM
38. CCn1c(=O)[nH]/c(=N\c2ccc(Oc3cc(Cl)c(C(=O)O)cn3)cc2)n(Cc2ccc(Cl)cc2)c1=O [Compound R-054]  26 nM
39. COC(=O)C(C)(C)Cn1c(=O)[nH]/c(=N\c2ccc(OC3CCC3)c(F)c2)n(Cc2ccc(Cl)cc2)c1=O [Compound R-073]  31 nM
40. CCc1[nH]c2ccc(/N=c3\[nH]c(=O)n(C[C@H](C)C(=O)OC)c(=O)n3Cc3ccc(Cl)cc3)cc2c1C [Compound R-068]  40 nM
41. CCc1[nH]c2ccc(/N=c3\[nH]c(=O)n(CC(C)(C)C(=O)OC)c(=O)n3Cc3ccc(Cl)cc3)cc2c1C [Compound R-069]  51 nM
42. CCOC(=O)c1cnc(Oc2ccc(/N=c3\[nH]c(=O)n(CC)c(=O)n3Cc3ccc(Cl)cc3)cc2)cc1Cl [Compound R-053]  52 nM
43. CCn1c(=O)[nH]/c(=N\c2ccc(Oc3ccc(C(=O)O)c(Cl)n3)cc2)n(Cc2ccc(Cl)cc2)c1=O [Compound R-066]  58 nM
44. CCOC(=O)[C@H]1C[C@@H](Oc2ccc(/N=c3\[nH]c(=O)n(CC)c(=O)n3Cc3ccc(Cl)cc3)cc2)C1 [Compound R-062]  318 nM
45. CCn1c(=O)[nH]/c(=N\c2ccc(O[C@H]3C[C@@H](C(=O)O)C3)cc2)n(Cc2ccc(Cl)cc2)c1=O [Compound R-063]  456 nM
